What was measured:
Type in all cases: cell-based, human
iRPE [1] = experiment: mRNA and protein expression of maturation markers in iRPE; conditions: Aphidicolin treated iRPE compared with HPI4 treated iRPE
Description: Tissue preparation for immunohistochemistry was done by placing wells in 4% (mass/volume) paraformaldehyde (Electron Microscopy Science, 157-4-100) for 20 minutes. Immunohistochemistry blocking solution (IBS) consisted of 500 ml of 1× DPBS (Dulbecco's phosphate-buffered saline, Life Technologies, 14190250), 5% (mass/volume) bovine serum albumin (Sigma Aldrich, A3311), 0.5% (mass/volume) Triton X-100 (Sigma Aldrich, X100-100ML), and 0.5% (mass/volume) TWEEN20 (Sigma Aldrich, P2287-100ML). Fixed cells were washed with IBS three times and permeabilized for 2 hours with IBS at room temperature. Cells were then stained with the following primary antibody for 1 hour at room temperature: RPE65 (anti-RPE65 monoclonal antibody [1:300, Abcam, ab13826), Ezrin (monoclonal anti-ezrin antibody, 1:100, Sigma Aldrich, E8897), or GT335 (anti-polyglutamylation modification monoclonal antibody, 1:1000, Adipogen, AG-20B-0020). […] RNA was quantified using an ND-1000 spectrophotometer (Nanodrop Technologies) and the manufacturers protocol. cDNA synthesis was performed using the Script cDNA Synthesis Kit (Bio-Rad, 1708891) and the manufacturer provided protocols. […] An HPI4 well had to be excluded due to extremely low RNA extraction from the well and an insufficient quantity of cDNA being amplified to measured. […] Data was analyzed using R software (R Development Core Team, 2011).

iRPE [2] = experiment: Single cell image features from DNN-S segmented QBAM images of drug-treated iRPE; conditions: for CPI_IntegratedIntensityEdge.K (Intensity 10), Mean / ML_MinIntensity.Mean (Intensity 1), Mean: Healthy-2 iRPE, 3.0 μmol/L Aphidicolin or 30.0 μM HPI4
Description: QBAM imaging and live cell segmentation allows for hundreds of cell image features to be measured and tracked non-invasively on individual cells throughout iRPE maturation. Thus, the trained DNN-S was used to segment QBAM images of living iRPE (Healthy-1 and Healthy-2 donors) treated with Aphidicolin, HPI-4, or nothing (control). Previously published cell image features and intensity metrics known to correlate to RPE maturation and health were then assessed for significance. […] Importantly, this technique allows for unprecedented hierarchical granularity to the data; enabling not just whole well “bulk” tissue measurements, but also as a function of field of view or at an individual cell level Clustering of treatments based off of two features known to be important to RPE maturation and health, cell area and mean cell intensity were performed. Cell minimum intensity, a new metric related to iRPE function identified using SML, is described further below.
Following differentiation, iRPE from donors Healthy-1 and Healthy-2 were placed on a 12-well 0.4 μm polycarbonate transwell plate (Corning, 3401) at a seeding density of 500,000 cells/ml in 0.5 ml. Only six of the 12 wells were used to minimize the time spent outside of the incubator while imaging. QBAM imaging and drug treatments started two or one weeks after seeding for Healthy-1 and Healthy-2 iRPE, respectively. For each culture plate, two of the six wells were treated with either 3.0 μmol/L Aphidicolin (Sigma Aldrich, A0781-10 MG), 30.0 μM HPI4 (Hedgehog Pathway Inhibitor 4, Sigma Aldrich, H4541-25 MG), or no additives to the RPEMM culture medium. RPEMM was changed three times a week and imaged on the same day every week immediately after medium change. To prevent the culture plate lid from fogging during imaging, culture medium in wells were replaced with room temperature RPEMM (with drugs if needed) immediately before imaging since room temperature medium minimized condensation. RPEMM without drug was added to a well without any cells in it to capture the bright reference image for QBAM imaging. For each well, a 4×3 grid of overlapping images were captured (10-15% image overlap) for image stitching using a Zeiss AxioImager M2 microscope with a 10× objective. For Healthy-2 and Healthy-1, a total of six plates were prepared, with six wells occupied in each plate, yielding 36 total wells imaged and analyzed. The iRPE from AMD samples were previously reported by Sharma et al (Sharma et al., 2018), and the iRPE from OCA donors were cultured as described above, but were only imaged after they had matured and were fixed with PFA. In total five well replicates of OCA8, six replicates from OCA9, four replicates of OCA26, eight replicates of OCA71, and four replicates of OCA103 were imaged. For AMD data 1 replicate of AMD1 Clone A, 5 replicates of AMD1 Clone B, 1 Replicate of AMD2 Clone A, 5 replicates of AMD2 Clone B, 1 replicate of AMD2 Clone C, 1 replicate of AMD3 Clone A, 5 replicates of AMD3 Clone B, and 1 replicate of AMD3 Clone C were imaged.
No preprocessing was performed on QBAM images before they were processed with the DNN-S. The structure of the DNN-S was the same as that used to segment the fluorescent images, except the input image had three channels instead of one. The three channels were three QBAM images captured of the same field of view, but each QBAM image was captured at a different wavelength (488 nm, 561 nm, and 633 nm).
In order to extract as many cell-level features as possible, multiple widely were leveraged used image libraries for feature extraction that have been integrated into WIPP. While the feature values for the same feature definitions might vary, they provide insights on the amount of variation introduced not only by image acquisition but also by image processing. […]

iRPE [3] = experiment: Electrophysiological measurements (TEP and TER) of iRPE monolayers; conditions: treated iRPE relative to control
Description: Electrical resistance measurements used for prediction of the iRPE monolayers were measured using an EVOM2 and EndOhm chamber (World Precision Instruments, EVOM2 and ENDOHM-12 respectively). Each line was measured for its resistance across 12 wells per treatment, per week. Intracellular transepithelial potential and resistance measurements in response to 1 mM potassium (Sigma Aldrich, P5405-1 KG) and 100 μM ATP (Sigma Aldrich, A9187-500 MG) were done identically to that of previous reports (Miyagishima et al., In Pursuit of Authenticity: Induced Pluripotent Stem Cell-Derived Retinal Pigment Epithelium for Clinical Applications, STEM CELLS Transl. Med. 5, 1562-1574 (2016)). Briefly, RPE monolayer cultures derived from iPSC lines were mounted on a modified “Ussing” chamber as described previously (Maminishkis et al., The P2Y2 Receptor Agonist INS37217 Stimulates RPE Fluid Transport In Vitro and Retinal Reattachment, Rat. Invest. Ophthalmol. Vis. Sci. 43, 3555-3566 (2002); Peterson et al., Extracellular ATP Activates Calcium Signaling, Ion, and Fluid Transport in Retinal Pigment Epithelium, J. Neurosci. 17, 2324-2337 (1997)). […] The signals from intracellular microelectrodes were referenced to the basal bath to measure the basolateral membrane potential (Vb) and the apical membrane potential (Va) was calculated by the equation: […]. […]

iRPE [4] = experiment: QBAM imaging of drug-treated iRPE (image absorbance); conditions: Healthy-1 and Healthy-2 iRPE, 8-week culture, weekly QBAM imaging
From the text: iRPE from each healthy donor (Healthy-1, Healthy-2) were imaged to determine if QBAM imaging affected cell maturation and could measure a large range in variation of iRPE pigmentation. This was done using three culture conditions: (1) control iRPE (no treatment), (2) iRPE treated with a known inducer of RPE maturation (Aphidicolin), and (3) iRPE treated with a known inhibitor of RPE maturation (hedgehog pathway inhibitor-4, HPI4).
Following differentiation, iRPE from donors Healthy-1 and Healthy-2 were placed on a 12-well 0.4 μm polycarbonate transwell plate (Corning, 3401) at a seeding density of 500,000 cells/ml in 0.5 ml. Only six of the 12 wells were used to minimize the time spent outside of the incubator while imaging. QBAM imaging and drug treatments started two or one weeks after seeding for Healthy-1 and Healthy-2 iRPE, respectively. For each culture plate, two of the six wells were treated with either 3.0 μmol/L Aphidicolin (Sigma Aldrich, A0781-10 MG), 30.0 μM HPI4 (Hedgehog Pathway Inhibitor 4, Sigma Aldrich, H4541-25 MG), or no additives to the RPEMM culture medium. RPEMM was changed three times a week and imaged on the same day every week immediately after medium change. […] For Healthy-2 and Healthy-1, a total of six plates were prepared, with six wells occupied in each plate, yielding 36 total wells imaged and analyzed. […]

Row | Structure (SMILES) | mRNA and protein expression of maturation markers (iRPE [1]) | CPI_IntegratedIntensityEdge.K (Intensity 10), Mean (iRPE [2]; week 2) | ML_MinIntensity.Mean (Intensity 1), Mean (iRPE [2]; week 2) | CPI_IntegratedIntensityEdge.K (Intensity 10), Mean (iRPE [2]; week 3) | ML_MinIntensity.Mean (Intensity 1), Mean (iRPE [2]; week 3) | CPI_IntegratedIntensityEdge.K (Intensity 10), Mean (iRPE [2]; week 4) | CPI_IntegratedIntensityEdge.K (Intensity 10), Mean (iRPE [2]; week 5) | ML_MinIntensity.Mean (Intensity 1), Mean (iRPE [2]; week 5) | CPI_IntegratedIntensityEdge.K (Intensity 10), Mean (iRPE [2]; week 6) | ML_MinIntensity.Mean (Intensity 1), Mean (iRPE [2]; week 6) | CPI_IntegratedIntensityEdge.K (Intensity 10), Mean (iRPE [2]; week 7) | ML_MinIntensity.Mean (Intensity 1), Mean (iRPE [2]; week 7) | baseline electrical response (TEP and TER) and its change to 1 mM potassium (K+) or 100 μM ATP (iRPE [3]) | image absorbance over time (iRPE [4]) | mean number of neighbors each iRPE cell had (iRPE [2]; Healthy-1 and Healthy-2 iRPE, across all time points, p<0.001) | ML_MinIntensity.Mean (Intensity 1), Mean (iRPE [2]; week 4)
1 | C[C@@]1(CO)[C@H](O)CC[C@@]2(C)[C@H]1CC[C@H]1C[C@@H]3C[C@@]12CC[C@]3(O)CO [Aphidicolin] | Higher | 5.87 | 144.67 | 6.07 | 204.31 | 5.3 | 5.59 | 183.77 | 4.76 | 185.15 | 4.53 | 180.84 | significantly greater | increasing image absorbance | – | –
2 | N#CC(=C(O)c1ccc(Cl)cc1Cl)c1nc2ccccc2c(=O)[nH]1 [HPI4] | – | 5.11 | 141.81 | 6.45 | 179.97 | 6.45 | 7.21 | 133.78 | 8.06 | 126.02 | 8.06 | 110.26 | significantly lower | decreasing trend in absorbance | significantly lower | 104.78

— patent publication US12718601B2, “Using machine learning and/or neural networks to validate stem cells and their derivatives (2-D cells and 3-D tissues) for use in cell therapy and tissue engineered products” (The United States of America, as represented by the …, priority 2018, dated 2026)
